Results reported in PMC8237038 (Acta Pharmacologica Sinica, 2021).
Each block holds one compound with its values, some of them ahead of it.

Tests used:
CYP3A [1] = target: T1, CYP3A (Homo sapiens, UniProt P08684); experiment: in vitro; details: microsomes
CYP3A [2] = target: T1, CYP3A; details: for inhibitory effects against CYP3A: microsomes
[3] = Pharmacokinetic interactions between HEJG and lopinavir in rats; details: lopinavir in rat plasma; for AUC(0-inf) / Cmax: male, Sprague-Dawley, rat, plasma, po, 160 mg/kg
CYP3A [4] = experiment: in vitro; details: human, human liver microsomes, pH 7.4, probe testosterone (6β-hydroxylation)
[5] = pH 7.4, Time-dependent inhibition IC50 Preincubation for 3 min
[6] = pH 7.4, Time-dependent inhibition IC50 Preincubation for 33 min
[7] = HEJG (3 g/kg, i.g.) + lopinavir (160 mg/kg, i.g.)
[8] = Water + lopinavir (160 mg/kg, i.g.), control group

T1 sequence (P08684 2-503): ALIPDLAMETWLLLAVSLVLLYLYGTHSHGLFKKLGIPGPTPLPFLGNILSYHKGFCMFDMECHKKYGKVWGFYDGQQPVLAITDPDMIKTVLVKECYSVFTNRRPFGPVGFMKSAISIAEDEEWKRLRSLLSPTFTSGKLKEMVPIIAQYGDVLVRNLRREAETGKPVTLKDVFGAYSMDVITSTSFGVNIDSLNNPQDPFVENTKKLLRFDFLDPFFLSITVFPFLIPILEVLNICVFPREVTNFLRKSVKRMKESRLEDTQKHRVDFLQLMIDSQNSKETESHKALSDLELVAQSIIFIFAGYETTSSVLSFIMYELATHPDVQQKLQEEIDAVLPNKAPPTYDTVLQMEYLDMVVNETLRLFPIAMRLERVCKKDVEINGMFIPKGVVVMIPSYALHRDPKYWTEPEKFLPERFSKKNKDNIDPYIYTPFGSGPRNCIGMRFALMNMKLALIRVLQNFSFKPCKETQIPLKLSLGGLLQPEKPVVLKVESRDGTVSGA

IC50 (CYP3A [1]; [5]): > 100 µM
IC50 (CYP3A [1]; [6]): > 100 µM
inhibitory effects against CYP3A (CYP3A [2]): weak inhibitory effects
SMILES: O=C(/C=C/c1ccc(O)c(O)c1)O[C@@H]1C[C@](O)(C(=O)O)C[C@@H](O)[C@H]1O [Chlorogenic acid]

IC50 (CYP3A [1]; [5]): > 100 µM
IC50 (CYP3A [1]; [6]): > 100 µM
inhibitory effects against CYP3A (CYP3A [2]): weak inhibitory effects
SMILES: O=C(O)/C=C/c1ccc(O)c(O)c1 [Caffeic acid]

The next lines start with the compound.

SMILES: O=c1c(O)c(-c2ccc(O)cc2)oc2cc(O)cc(O)c12 [Kaempferol]
IC50 shift (CYP3A [1]; pH 7.4): 2.01
IC50 (CYP3A [1]; [5]): 13.1 ± 1.29 µM
IC50 (CYP3A [1]; [6]): 6.53 ± 0.31 µM

SMILES: Cc1cccc(C)c1OCC(=O)N[C@@H](Cc1ccccc1)[C@@H](O)C[C@H](Cc1ccccc1)NC(=O)[C@H](C(C)C)N1CCCNC1=O [lopinavir]
t1/2 [3, 7]: 2.68 ± 0.45 h
AUC(0-inf) [3, 7]: 10200 ± 1570 ng·h/mL
AUC(0-inf) [3, 8]: 4190 ± 131 ng·h/mL
Cmax [3, 7]: 1860 ± 215 ng/mL
Cmax [3, 8]: 1280 ± 55 ng/mL

SMILES: COc1cc(O)ccc1/C=C/C(=O)c1ccc(O)cc1 [Echinatin]
IC50 (CYP3A [4]; Time-dependent inhibition IC50 Preincubation for 3 min, constituents, HLMs, 3 min preincubation): 25.9 ± 3.19 µM
IC50 (CYP3A [4]; Time-dependent inhibition IC50 Preincubation for 33 min, constituents, HLMs, 33 min preincubation): 8.08 ± 0.56 µM
Ratio (CYP3A [2]; constituents, IC50 3 min / 33 min preincubation): 3.20

SMILES: O=c1c(O)c(-c2ccc(O)c(O)c2)oc2cc(O)cc(O)c12 [Quercetin]
IC50 (CYP3A [4]): 3.95 ± 0.31 µM
